From US6893659B2, “Pharmaceutical composition for oral administration of a N-piperidino-3- pyrazolecarboxamide derivative, its salts and their solvates” (Sanoti-Synthelabo, priority 1997, dated 2005)
Values after ≈ are worked out from the molar mass of the structure shown. Structures can show the parent of a compound that is named as a salt.

Experiments:
[1] = Instantaneous solubility of the compounds of formula (I) in aqueous media; assay type: physicochemical; conditions: for Solubility, dissolution medium Acetic buffer pH 7.5 / Solubility, dissolution medium Phosphate buffer pH 7.5 / Solubility, dissolution medium Water / Solubility, dissolution medium Water + 10% ethanol: instantaneous solubility, room temperature
Method: (§1) Furthermore, the hydrophobic character of the compounds of formula (I) is very strongly pronounced. […] These compounds are soluble in alcohols and glycols and more particularly in polyethylene glycols (PEG).
The solubilities of the compounds of formula (I) are measured in different aqueous media. The instantaneous solubility is evaluated at room temperature by quantitative analysis. The results, expressed in μg per ml, are collated in Table 1 below: […]

[2] = Solubility of compound A in solvents and after dilution of the solutions in water; assay type: physicochemical; conditions: for solubility: organic solvent or mixture
Method: as §1
However, when the solutions obtained with an alcohol or a glycol are diluted in an aqueous medium, the compound of formula (I) precipitates because of its strongly hydrophobic character.
Measurements were also made of the solubility of compound A in different solvents (Table 2) and after dilution in water of the solutions formed (Table 3).

[3] = test system: Caco-2 cells; experiment: Intestinal transepithelial passage across Caco-2 monolayer; assay type: in vitro ADME
Method: (§2) The permeability of the epithelium of the compounds is evaluated using the Caco-2 cell line, which has the characteristic of undergoing differentiation in vitro to form an epithelial monolayer (Crit. Rev. Ther. Drug Carrier System, 1991, 8 (4), 105-330). In this model the permeability of compound A dissolved in dimethyl sulfoxide (DMSO) is high, showing that it has a good ability to be absorbed by the intestine when it is in solution.
(§3) Caco-2 cells are cultured onto microporous polycarbonate filters covered with collagen. The cellular monolayer formed on the filter then makes it possible to separate an apical compartment (imitating the intestinal lumen) from a basal compartment (imitating the blood circulation).
(§4) The composition containing the compound to be studied is placed on the apical side and the passage of this compound, dispersed or solubilized in Hank's medium, through this cellular barrier is evaluated by measuring the kinetics of its appearance on the basal side. This aqueous medium, of pH 6.5, has the following composition: NaCl=8.0 g/l; KCl=0.4 g/l; CaCl2=0.19 g/l; MgCl2=0.1 g/l; MgSO4=0.1 g/l; Na2HPO4=0.09 g/l; KH2PO4=0.06 g/l; NaHCO3=0.35 g/l; glucose=1 g/l; phenol red=0.01 g/l.
(§5) The coefficient of permeability P, in cm/s, is then determined; this characterizes the rate of passage of the molecule through the membrane, namely: P=(da/dt).(1/A.Co) • where: • da/dt=variation of the amount of test compound passing through the cellular monolayer as a function of time (mol/s) • A=surface area of the monolayer (cm^2) • Co=initial concentration of the test compound (mol/l)

[4] = as above; assay type: in vitro ADME; conditions: human, Caco-2; introduced in Hank's medium pH 6.5, in solution in DMSO; apical to basal; read-out: Coefficient of permeability P
Method: as §2, §3, §4, §5

[5] = Wettability by H. Mohamad's method; assay type: physicochemical
Source text: as §1
The wettability of compound A was studied in different formulations using the method of H. Mohamad et al., Labo Pharma. Problèmes techniques, 1984, 32 (346), 284-289.

[6] = Kinetics of dissolution in a gastric medium; assay type: physicochemical; conditions: 40 mg in one liter, phosphate-citrate buffer pH 3, 37° C., no surfactant
Method: The kinetics of dissolution of different formulations in a gastric medium were studied at 37° C. in a phosphate-citrate buffer of pH 3 for 30 minutes. […]
6 tests were carried out for each formulation and the amount of compound A dissolved in the medium was measured every 5 minutes.
Table 7 indicates the mean value of the percentage of compound A dissolved and the standard deviation relative to this value for the different formulations described in Table 6.

[7] = ethanol solution, dilution in water 10%
[8] = polyethylene glycol 400 solution, dilution in water 30%

Question: Which results are given for Cc1c(C(=O)NN2CCCCC2)nn(-c2ccc(Cl)cc2Cl)c1-c1ccc(Cl)cc1 [Hydrochloride (solvated)]?
Answer: Solubility, dissolution medium Acetic buffer pH 7.5 [1]: 54 μg per ml; Solubility, dissolution medium Phosphate buffer pH 7.5 [1]: 0.5 μg per ml; Solubility, dissolution medium Water ([1]; water): 37 μg per ml; Solubility, dissolution medium Water + 10% ethanol [1]: 10 μg per ml

Question: Which “Solubility, dissolution medium Acetic buffer pH 7.5” value [1] does the source give for Cc1c(C(=O)NN2CCCCC2)nn(-c2ccc(Cl)cc2Cl)c1-c1ccc(Cl)cc1 [Hydrogensulfate] here?
Answer: The value was 30 μg per ml.

Question: And the “Solubility, dissolution medium Phosphate buffer pH 7.5” value [1]?
Answer: The value was 0.9 μg per ml.

Question: What about the “Solubility, dissolution medium Water” value ([1]; water) of the same compound?
Answer: The value was 13 μg per ml.

Question: And the “Solubility, dissolution medium Water + 10% ethanol” value [1]?
Answer: Its value is 38 μg per ml.

Question: With Cc1c(C(=O)NN2CCCCC2)nn(-c2ccc(Cl)cc2Cl)c1-c1ccc(Cl)cc1 [Methanesulfonate (solvated)] as the compound, how does the “Solubility, dissolution medium Water” value ([1]; water) read?
Answer: The value was 39 μg per ml.

Question: What about the “Solubility, dissolution medium Water + 10% ethanol” value [1] of the same compound?
Answer: The value was 48 μg per ml.

Question: Which “Solubility, dissolution medium Acetic buffer pH 7.5” value [1] does the source give for Cc1c(C(=O)NN2CCCCC2)nn(-c2ccc(Cl)cc2Cl)c1-c1ccc(Cl)cc1 [Paratoluenesulfonate] here?
Answer: Its value is 2.4 μg per ml.

Question: What about the “Solubility, dissolution medium Phosphate buffer pH 7.5” value [1] of the same compound?
Answer: The value was 0.2 μg per ml.

Question: What about the “Solubility, dissolution medium Water” value ([1]; water) of the same compound?
Answer: The value was 3.9 μg per ml.

Question: And the “Solubility, dissolution medium Water + 10% ethanol” value [1]?
Answer: Its value is 7.3 μg per ml.

Question: Which “Solubility, dissolution medium Acetic buffer pH 7.5” value [1] does the source give for Cc1c(C(=O)NN2CCCCC2)nn(-c2ccc(Cl)cc2Cl)c1-c1ccc(Cl)cc1 [Phosphate] here?
Answer: Its value is 0.9 μg per ml.

Question: What about the “Solubility, dissolution medium Phosphate buffer pH 7.5” value [1] of the same compound?
Answer: Its value is 0.7 μg per ml.

Question: What about the “Solubility, dissolution medium Water” value ([1]; water) of the same compound?
Answer: The value was 1.3 μg per ml.

Question: What about the “Solubility, dissolution medium Water + 10% ethanol” value [1] of the same compound?
Answer: Its value is 7.5 μg per ml.

Question: Which results are given for Cc1c(C(=O)NN2CCCCC2)nn(-c2ccc(Cl)cc2Cl)c1-c1ccc(Cl)cc1 [Solvated compound A]?
Answer: Solubility, dissolution medium Acetic buffer pH 7.5 [1]: 1.2 μg per ml; Solubility, dissolution medium Water ([1]; water): 0.7 μg per ml; Solubility, dissolution medium Water + 10% ethanol [1]: 0.9 μg per ml

Question: Which results are given for Cc1c(C(=O)NN2CCCCC2)nn(-c2ccc(Cl)cc2Cl)c1-c1ccc(Cl)cc1 [compound A, N-Piperidino-5-(4-chlorophenyl)-1-(2,4-dichlorophenyl)-4-methylpyrazole-3-carboxamide]?
Answer: Amount of compound A dissolved, measured [2, 7]: 1.2.10^−3 mg/ml; Amount of compound A dissolved, theoretical [2, 7]: 3.5 mg/mL; solubility ([2]; solvent Ethanol): 35 mg/mL (≈ 75.5 mM); solubility ([2]; solvent Polyethylene glycol 400): 50 mg/mL (≈ 108 mM); Amount of compound A dissolved, measured [2, 8]: 3 µg/mL; Amount of compound A dissolved, theoretical [2, 8]: 15 mg/mL; Dilution in water ([2]; solution in polyethylene glycol 1500 at 60° C.): not dilutable; Solubility of compound A ([2]; solvent Polyethylene glycol 1500 at 60° C.): 80 mg/g; Relative rate of passage ([3]; Caco-2 monolayer, Hank's medium pH 6.5, relative to compound A in suspension in Hank's medium (=1)): 1; Permeability / ability to pass through the epithelium (in words) ([3]; compound dissolved in DMSO): very good ability and high; Papp A→B [4]: 9.6 ×10⁻⁶ cm/s; Wettability in water (in words) [5]: not wettable; Solubility, dissolution medium Water + 10% ethanol ([1]; listed as Compound A (base)): 1.2 μg per ml; Solubility in water (in words) ([1]; water, irrespective of the pH): practically insoluble; Dissolution in the dissolution medium with nothing else added [6]: no dissolution takes place
